{"source": "patent US7888005B2", "about": "“Inhibitors of macromolecular activity” (priority 2003, dated 2011)", "key": {"[1]": {"tested_on": "E. coli ribonuclease P RNA", "settings": "literature (Vioque 1989; Mikkelsen et al.); cited from earlier work"}, "[2]": {"tested_on": "strain DM46, which contains the rnpB gene cloned on a high copy plasmid", "assay": "Top agar plate screen of extract dilutions, strain DM46", "type": "cell-based, E. coli", "settings": "strain DM46 (multicopy rnpB)", "description": "(§1) Methods. Different strains of E. coli-DH5alpha (DM46 and PTZ/19R) were streaked onto bacto MacConkey agar base plate containing ampicillin at 50 μg/ml. Then a fresh single colony was grown on 5 ml NZY Ap (50 μg/ml) broth at 37° C. overnight. The next day a frozen cell from the above cells was made. 1 ml of a freshly saturated culture was added to a microcentrifuge tube containing 1 ml DMSO (7%). These cells were stored at −80° C. Cells from frozen stocks were streaked out again and one colony from each plate was transferred to 1 ml NZY(amp, 50 μg/ml) broth. The tubes were shaken at 37° C. overnight.\n(§2) Top agar (1% tryptone, 0.8% NaCl, 0.7% agar) was used to distribute cells in a thin layer over the surface of a plate. 100 μl of fresh cell was mixed with 2.5 ml top agar. The mixture was then poured into NZY AP (50 μg/ml). Microtiter dishes containing 96-well, were used to prepare serial dilutions in 10% DMSO (1:5, 1:25, 1:125, 1:625) of extracts. A multi-channel pipeting device was used to add 5 μl extract to the top agar plate. Agar plates containing extract were incubated overnight at 37° C. At the end of incubation, inhibition appeared as clear zone around the place that extract was added. Positive extracts from the initial screens were analyzed further. […]"}, "[3]": {"tested_on": "E. coli cell (19R/PTZ) strain containing a single chromosomal copy of the wildtype rnpB gene", "assay": "Top agar plate screen of extract dilutions, strain 19R/PTZ", "type": "cell-based", "settings": "strain 19R/PTZ (single chromosomal rnpB)", "description": "as §1, §2"}}, "data": [{"compound": "COc1ccc(C[C@H](N)C(=O)N[C@H]2[C@@H](O)[C@H](n3cnc4c(N(C)C)ncnc43)O[C@@H]2CO)cc1", "note": "[puromycin]", "values": [{"measurement": "Inhibition of ribonuclease P RNA reaction", "setting": "[1]", "value": "inhibits the catalytic reaction of ribonuclease P RNA"}, {"measurement": "Inhibition of growth, in words", "setting": "[2]", "value": "inhibits the growth of both strains"}, {"measurement": "Inhibition of growth, in words", "setting": "[3]", "value": "inhibits the growth of both strains"}]}, {"compound": "NC[C@@H]1O[C@H](O[C@H]2[C@@H](O)[C@H](O[C@@H]3[C@@H](O)[C@H](N)C[C@H](N)[C@H]3O[C@H]3O[C@H](CN)[C@@H](O)[C@H](O)[C@H]3N)O[C@@H]2CO)[C@H](N)[C@@H](O)[C@@H]1O", "note": "[Neomycin B]", "values": [{"measurement": "Inhibition of ribonuclease P RNA reaction", "setting": "[1]", "value": "micromolar concentrations"}]}]}
